Test results reported in patent publication US7943606B2, “Compositions and methods to control abnormal cell growth” (CanCure Laboratories, LLC, priority 2005, dated 2011).

Assays:
MXT tumor = assay: MXT mouse mammary tumor model: tumor volume and survival; format: in vivo; conditions: for Tumor volume, Day 7: start of treatment
From the text: Tumors were developed in first generation hybrid BDF1 (C57 B1 female×DBA/2 male) adult female mice kept at specified pathogen free (SPF) hygienic level. Suspensions of HL-60 human leukemia cells, or approximately 0.1 cm^3 volume of tumor tissue derived from HT-168 human melanoma, PC-3 human prostate adenocarcinoma, T47D human breast carcinoma, MXT mouse mammary cancer, or mouse B16 melanoma cells were implanted subcutaneously to develop the tumors. After 12-18 days when the tumor-bearing mice were first treated, the size of the tumors was in the 0.2-0.4 cm^3 range. All compounds used were dissolved in physiological (0.9%) saline (NaCl), and the agents, alone or in combinations, were applied subcutaneously or intraperitoneally in 50 μl volume. Tumor volume was determined by calipers in three dimensions; this technique is well known to one having ordinary skill in the art. Tumor volume was calculated according to the generally accepted formula: V=a^2×b×π/6, where “a” and “b” mean the shortest and longest diameter, respectively, of the measured tumor.
The mouse mammary MXT tumor was developed as described above. On day 7 after transplantation of tumor cells, the animals were either remained untreated (group 1) or were treated with 2 mg/kg of CisPt alone (Group 2), or 4 mg/kg of CisPt alone (Group 3), or 4.6 mg/kg of CCDTHT alone (Group 4), or 2 mg/kg of CisPt+4.6 mg/kg of CCDTHT (Group 5), or 4 mg/kg of CisPt+4.6 mg/kg of CCDTHT (Group 6). CCDTHT and CisPt were administered subcutaneously and intraperitoneally, respectively, once daily for 10 days, including a 2-day rest period after 5 days of treatment (i.e., the last treatment was on day 19). Each group consisted of 7 animals, and the mean values±std. dev. for tumor volumes and body weight are shown in TABLE 4 and TABLE 5, respectively. While in this tumor model CCDTHT alone reduced the tumor volume less effectively than in the human tumor models, it clearly added to the tumor volume-reducing effect of CisPt (TABLE 4). A dramatic reduction in tumor volume was particularly evident in Group 6 (4 mg/kg CisPt+4.6 mg/kg CCDTHT).
(§1) The mouse mammary MXT tumor model was developed and treated as described above. On day 7 the animals were either remained untreated (Group 1) or were treated with 3 mg/kg of CisPt (Group 2) or 3 mg/kg of CisPt+15 mg/kg of highly purified PALP (Group 3). CisPt and PALP were administered intraperitoneally and subcutaneously, respectively, seven times on every second day (i.e., treatments were terminated on day 21). Each group included 7 animals; the mean values±std. dev. for tumor volumes and body weight are shown in TABLE 6 and TABLE 7, respectively.
The mouse mammary MXT tumor model was developed and treated as described above. On day 7 the animals either remained untreated (Group 1) or were treated with 3 mg/kg CisPt (Group 2), 3 mg/kg CisPt+4.6 mg/kg of CCDTHT (Group 3), or 3 mg/kg CisPt+4.6 mg/kg of CCDTHT+15 mg/kg highly purified PALP (Group 4). CisPt was administered intraperitoneally 9-times once every second day; CCDTHT was administered for 15 days once daily; and PALP was administered 3 times every 3rd day. In each group 7 mice were included. The mean values±std. dev. for tumor volumes and body weights are shown in TABLE 9 and TABLE 10, respectively.

[1] = Body weight of animals in the MXT tumor model; format: in vivo, mouse; conditions: for Body weight, Day 7: start of treatment
Procedure: The mouse mammary MXT tumor was developed as described above. […] CCDTHT and CisPt were administered subcutaneously and intraperitoneally, respectively, once daily for 10 days, including a 2-day rest period after 5 days of treatment (i.e., the last treatment was on day 19). Each group consisted of 7 animals, and the mean values±std. dev. for tumor volumes and body weight are shown in TABLE 4 and TABLE 5, respectively.
as §1, with “On day 7 the animals were either remained untreated (Group 1) or were treated with 3 mg/kg of CisPt (Group 2) or 3 mg/kg of CisPt+15 mg/kg of highly purified PALP (Group 3).” left out
The mouse mammary MXT tumor model was developed and treated as described above. […] In each group 7 mice were included. The mean values±std. dev. for tumor volumes and body weights are shown in TABLE 9 and TABLE 10, respectively.

cancer cells = assay: Induction of cancer cell death by quaternary nitrogen dyes compared with CCDTHT; format: cell-based
From the text: Despite these observations, for the purpose of embodiments of the invention, the thioxanthene or thioxanthone moiety may be replaced with any other heterocyclic moiety to which it is feasible to attach at least one quaternary nitrogen group with three substituents that together are capable of inhibiting the transport of external choline into cells and thereby inhibit cell proliferation.

[2] = Example 31, CisPt 2 mg/kg i.p. and/or CCDTHT 4.6 mg/kg s.c., once daily
[3] = Example 31, CisPt 2 mg/kg i.p. and/or CCDTHT 4.6 mg/kg s.c.
[4] = Example 31, CisPt 4 mg/kg i.p. without or with CCDTHT 4.6 mg/kg s.c., once daily
[5] = Example 31, CisPt 4 mg/kg i.p. without or with CCDTHT 4.6 mg/kg s.c.
[6] = Example 32, CisPt 3 mg/kg i.p. without or with PALP 15 mg/kg s.c., every second day
[7] = Example 32, CisPt 3 mg/kg i.p. without or with PALP 15 mg/kg s.c.
[8] = Example 34, CisPt 3 mg/kg i.p. every second day, CCDTHT 4.6 mg/kg once daily, PALP 15 mg/kg every 3rd day
[9] = Example 34, CisPt 3 mg/kg i.p., CCDTHT 4.6 mg/kg, PALP 15 mg/kg

For `N.N.[Cl][Pt][Cl]` [CisPt, Cisplatin], the survival (MXT tumor; Example 31, CisPt 2 mg/kg and/or CCDTHT 4.6 mg/kg (groups 2, 4, 5)) was 32.7 ± 6.2 days, the “Tumor volume, Day 14” value (MXT tumor; [2]) was 3.34 ± 1.04 cm^3 and the “Tumor volume, Day 18” value (MXT tumor; [2]) was 5.37 ± 0.68 cm^3. The “Tumor volume, Day 21” value (MXT tumor; [2]) was 6.23 ± 0.86 cm^3, the “Tumor volume, Day 7” value (MXT tumor; [3]) was 0.46 ± 0.08 cm^3 and the “Tumor volume, Day 14” value (MXT tumor; [4]) was 1.77 ± 0.40 cm^3. For the same molecule, the “Tumor volume, Day 18” value (MXT tumor; [4]) was “all dead”, the “Tumor volume, Day 21” value (MXT tumor; [4]) was “all dead” and the “Tumor volume, Day 7” value (MXT tumor; [5]) was 0.45 ± 0.10 cm^3. For the same molecule, the survival (MXT tumor; Example 31, CisPt 4 mg/kg without or with CCDTHT 4.6 mg/kg (groups 3, 6)) was 18.1 ± 0.7 days, the “Tumor volume, Day 11” value (MXT tumor; [6]) was 1.45 ± 0.22 cm^3 and the “Tumor volume, Day 16” value (MXT tumor; [6]) was 4.53 ± 1.00 cm^3. The “Tumor volume, Day 21” value (MXT tumor; [6]) was 5.86 ± 1.38 cm^3, the “Tumor volume, Day 7” value (MXT tumor; [7]) was 0.38 ± 0.01 cm^3 and the survival (MXT tumor; Example 32, CisPt 3 mg/kg without or with PALP 15 mg/kg) was 31.1 ± 6.2 days. For the same molecule, the survival time (MXT tumor; Example 34, CisPt 3 mg/kg alone or with CCDTHT 4.6 mg/kg + PALP 15 mg/kg) was 34 days, the “Tumor volume, Day 11” value (MXT tumor; [8]) was 1.92 ± 0.67 cm^3 and the “Tumor volume, Day 15” value (MXT tumor; [8]) was 3.80 ± 1.30 cm^3. The “Tumor volume, Day 21” value (MXT tumor; [8]) was 6.64 ± 1.28 cm^3, the “Tumor volume, Day 7” value (MXT tumor; [9]) was 0.36 ± 0.12 cm^3 and the “Body weight, Day 14” value [1, 2] was 22.9 ± 0.87 g. For the same molecule, the “Body weight, Day 18” value [1, 2] was 22.3 ± 1.02 g, the “Body weight, Day 21” value [1, 2] was 21.2 ± 1.31 g and the “Body weight, Day 7” value [1, 3] was 22.4 ± 0.73 g. For the same molecule, the “Body weight, Day 14” value [1, 4] was 19.4 ± 1.05 g, the “Body weight, Day 18” value [1, 4] was “all dead” and the “Body weight, Day 21” value [1, 4] was “all dead”. For the same molecule, the “Body weight, Day 7” value [1, 5] was 22.5 ± 0.92 g, the “Body weight, Day 11” value [1, 6] was 23.1 ± 0.52 g and the “Body weight, Day 16” value [1, 6] was 20.9 ± 0.65 g. The “Body weight, Day 21” value [1, 6] was 19.2 ± 0.66 g, the “Body weight, Day 7” value [1, 7] was 22.7 ± 0.37 g and the “Body weight, Day 11” value [1, 8] was 23.10 ± 1.40 g. The “Body weight, Day 15” value [1, 8] was 22.9 ± 1.00 g, the “Body weight, Day 21” value [1, 8] was 20.6 ± 1.80 g and the “Body weight, Day 7” value [1, 9] was 22.2 ± 1.10 g.
For `CN(C)c1ccc2cc3ccc(=[N+](C)C)cc-3oc2c1.[Cl-]` [pyronin], the “inducing cancer cell death, compared with CCDTHT” value (cancer cells) was “ineffective or less effective”.
With `CN(C)c1ccc(C(=C2C=CC(=[N+](C)C)C=C2)c2ccc([N+](C)(C)C)cc2)cc1.[Cl-].[Cl-]` [methyl green] the “inducing cancer cell death, compared with CCDTHT” value (cancer cells) was “ineffective or less effective”.
For `CN(C)c1ccc2nc3ccc(=[N+](C)C)cc-3sc2c1` [methylene blue], the “inducing cancer cell death, compared with CCDTHT” value (cancer cells) was “ineffective or less effective”.
With `CN(C)c1ccc2nc3ccc(=[N+](C)C)c([N+](=O)[O-])c-3sc2c1.[Cl-]` [methylene green] the “inducing cancer cell death, compared with CCDTHT” value (cancer cells) was “ineffective or less effective”.
With `CN(C)c1ccc2nc3c(C(=O)O)cc(=O)c(O)c-3oc2c1.Cl` [gallocyanine] the “inducing cancer cell death, compared with CCDTHT” value (cancer cells) was “ineffective or less effective”.
For celestine blue, the “inducing cancer cell death, compared with CCDTHT” value (cancer cells) was “ineffective or less effective”.
For `C[N+](C)=c1ccc2nc3c(ccc4ccccc43)oc-2c1.[Cl-].[Cl-].[Cl-].[Zn+2]` [meldola blue], the “inducing cancer cell death, compared with CCDTHT” value (cancer cells) was “ineffective or less effective”.
